The values that follow come from publication PMC6087734, “Loss of S100A1 expression leads to Ca^2+ release potentiation in mutant mice with disrupted CaM and S100A1 binding to CaMBD2 of RyR1” (Physiological Reports, 2018).

As usually defined, the Kd is a measure of binding affinity in units of concentration.

Test [1] deals with T1, S100A1 (recombinant human 15N-labeled, Ca2+-loaded) (Homo sapiens, UniProt P23297).
T1 construct: made in house
T1 sequence (P23297 1-94): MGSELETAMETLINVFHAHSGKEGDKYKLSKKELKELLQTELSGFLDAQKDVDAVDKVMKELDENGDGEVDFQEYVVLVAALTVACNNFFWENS
Description: ITC of S100A1 association with RyR1 CaMBD peptides. To be noted: for S100A1 binding, in words: 10 mmol/L Ca2+; for N (sites) / Kd / ΔG / ΔH: 37°C, two-site fit, mean ± SD, n = 3; for difference in affinity between the tight and weak peptide-binding site: ratio of KD at the two sites on S100A1 dimer. Type of test: binding. The procedure:
All peptides were synthesized using […] peptide synthesis and their purity was determined to be >95% by high pressure liquid chromatography and mass spectrometry (Biosynthesis Inc., Lewisville, TX or GenScript, Piscataway, NJ). Three peptides derived from human RyR1 sequence were synthesized: CaMBD2, residues 3614‐3640, […]; CaMBD1, residues 1975‐1999, […]; and CaMBD3, residues 4303‐4326, […]. As they are internal peptides the C‐terminus was […] and N‐terminus was acetylated to neutralize the charged ends. The peptides stock were made in D6‐DMSO and their concentration were determined by quantitative amino acid analysis (Biosynthesis Inc., Lewisville, TX) and/or determined using the extinction coefficient for the methyl ester of N‐acetyl tryptophan, ε280 = 5600 cm^−1M^−1.
Expression and purification (>95% by SDS‐PAGE) of recombinant human ^15N‐labeled S100A1 was performed as previous described (Melville et al. 2017b). The concentrations of S100A1 stock solutions were determined using the Bio‐Rad Protein Assay (Bio‐Rad Inc., Hercules, CA) using a known concentration of BSA as the standard. Concentrations are given in S100A1 monomer concentration except where indicated.
Heat changes during the titration of each CaMBD peptide into Ca^2+‐S100A1 were measured using a VP‐ITC titration microcalorimeter (MicroCal, Inc., Northhampton, MA) as done previously (Wilder et al. 2003). All solutions were degassed under vacuum and equilibrated at 37°C prior to titration. For each titration the sample cell (1.4 mL) contained 10 mmol/L TES, pH 7.2, 15 mmol/L NaCl, and 10 mmol/L CaCl2, 0.5 mmol/L TCEP, <5% D6‐DMSO (from peptide stocks or equivalent D6‐DMSO added to controls), and 0.04 mmol/L CaMBD peptide, while the reference cell contained water. Upon equilibration, 0.20–0.35 mmol/L S100A1 (dimer concentration) prepared in the same buffer without peptide but equivalent D6‐DMSO was injected using the default injection rate with a time interval between each injection to allow the sample to return to baseline. The resulting titration curves were corrected for protein‐free buffer control.
Images were collected and evaluated using the same settings and enhancing parameters so that all images could be directly compared. Line‐scan images were analyzed using LSM examiner (Carl Zeiss, Jena, DE). Calculation of AP‐induced Ca^2+ signals were conducted using Origin Pro 8 (OriginLab Corporation, Northampton, MA, USA) and SPSS for Windows ver. 24.0 (SPSS Inc., Chicago, IL). Summary data were reported as mean ± SD. Normal distribution of data was assessed using the Kolmogorov–Smirnov test. Unpaired two sample Student's t‐test was used to test for differences between the means of the indo 1‐resting values and peak AP‐induced Ca^2+ transients from two different samples. ITC results were background buffer subtracted and analyzed using the Origin for ITC software (MicroCal, Northampton, MA) and fit using two‐site fitting model (Freire et al. 1990). Differences were considered significant when P < 0.05.

In the next test the test system is CaM. To be noted: ref Lau et al. 2014, cited from earlier work; for affinity sequence of CaM for the CaMBDs, in words: ITC data; for CaM binding, in words: isothermal calorimetry, rabbit RyR1 peptides. An excerpt:
There is substantial evidence that CaM and S100A1 may bind to multiple sites within the RyR1. […] Given the affinity of S100A1 for the CaMBDs, it is likely that the observed RyR1 re ...

For test [2], the target named is RyR1 CaMBD3 peptide (site 1) (Homo sapiens). In words: ITC. For orientation: ITC needs no label: the signal is the heat of the interaction.
The target of test [3] is RyR1 CaMBD3 peptide (site 2) (Homo sapiens). In words: ITC.
For test [4], the target named is RyR1 CaMBD2 peptide (site 1) (Homo sapiens). In words: ITC.
The target of test [5] is RyR1 CaMBD1 peptide (site 2) (Homo sapiens). Description: ITC.
The target in test [6] is RyR1 CaMBD1 peptide (site 1) (Homo sapiens). In words: ITC.
For test [7], the target named is RyR1 CaMBD2 peptide (site 2) (Homo sapiens). Description: ITC.
The next test concerns RyR1. To be noted: in vitro FRET; ref Rebbeck et al. 2016; cited from earlier work. The source says:
In fast‐type skeletal muscle the intracellular concentration of S100A1 was reported to be ~3 μmol/L (Haimoto and Kato 1987; Zimmer et al. 1991), with total intracellular concentration of CaM being about 5 μmol/L (Robertson et al. 1981).

Setting [8] is: peptide-binding site 1, ITC VP-ITC, 10 mmol/L TES pH 7.2, 15 mmol/L NaCl, 10 mmol/L CaCl2, 0.5 mmol/L TCEP, <5% D6-DMSO, 0.04 mmol/L peptide in cell, 0.20-0.35 mmol/L S100A1 (dimer) injected.
Setting [9] is: peptide-binding site 1, ITC, pH 7.2, 10 mmol/L CaCl2.
The mark [10] stands for this setting: peptide-binding site 2, ITC, pH 7.2, 10 mmol/L CaCl2.

Entries after “also recorded” stand apart in the source; their conditions may differ. Residues, ends and D or L forms follow the SMILES beside them.

Regarding `CC[C@H](C)[C@H](NC(=O)[C@H](CC(C)C)NC(=O)[C@H](CC(C)C)NC(=O)CNC(=O)[C@H](Cc1ccc(O)cc1)NC(=O)[C@H](CCCNC(=N)N)NC(=O)[C@H](CO)NC(C)=O)C(=O)N[C@@H](CCCCN)C(=O)N[C@@H](C)C(=O)N[C@@H](Cc1ccccc1)C(=O)N[C@@H](CO)C(=O)N[C@@H](CCSC)C(=O)N[C@H](C(=O)N[C@@H](C)C(=O)N[C@@H](C)C(=O)N[C@@H](CCC(=O)O)C(=O)N[C@H](C(=O)N[C@@H](C)C(=O)N[C@@H](CCCNC(=N)N)C(=O)N[C@@H](CCCNC(=N)N)C(=O)N[C@H](C(=O)N[C@@H](CCCNC(=N)N)C(=O)N[C@@H](CCC(=O)O)C(=O)N[C@@H](Cc1ccccc1)C(=O)N[C@@H](CCCNC(=N)N)C(N)=O)[C@@H](C)O)[C@@H](C)O)[C@@H](C)O` [CaMBD1] (Ac-SRYGLLIKAFSMTAAETARRTREFR-NH2), the “S100A1 binding, in words” value in test [1] (ITC) is on record as “binds with different affinities; also recorded: weakest affinity”. Moreover, in [1] (setting [8]), the “N (sites)” value was found to be 1.14 ± 0.10. Further, in test [1] (setting [9]), the Kd was determined as 1.3 ± 0.284 µM, the ΔG is -8.4 ± 0.1 kcal/mol and the ΔH was -4.5 ± 0.7 kcal/mol. For the same molecule, in [1] (setting [10]), the Kd was 21 µM, the “N (sites)” value worked out at 0.75 ± 0.07, the ΔG was -6.7 ± 0.2 kcal/mol and the ΔH is -10.8 ± 0.4 kcal/mol. The “difference in affinity between the tight and weak peptide-binding site” value (shortened to “difference”) in test [1] worked out at 16 fold. Moreover, the “affinity sequence of CaM for the CaMBDs, in words” value (“affinity sequence of CaM” below) in the test with CaM was “CaMBD2 > CaMBD3 > CaMBD1”.
`CSCC[C@H](NC(=O)[C@H](CCCNC(=N)N)NC(=O)[C@H](Cc1ccccc1)NC(=O)[C@H](CS)NC(=O)[C@H](C)NC(=O)[C@@H](NC(=O)[C@@H](NC(=O)[C@H](C)NC(=O)[C@H](CCCNC(=N)N)NC(=O)[C@H](CCCNC(=N)N)NC(=O)[C@H](CCCNC(=N)N)NC(=O)[C@H](CCC(N)=O)NC(=O)[C@H](CCCCN)NC(=O)[C@H](CO)NC(=O)[C@H](CC(C)C)NC(=O)[C@H](CC(C)C)NC(=O)[C@H](CCCCN)NC(=O)[C@H](Cc1c[nH]cn1)NC(=O)[C@H](Cc1c[nH]c2ccccc12)NC(=O)[C@@H](NC(=O)[C@H](C)NC(=O)[C@H](CCCCN)NC(=O)[C@H](CCCCN)NC(=O)[C@H](CO)NC(=O)[C@H](CCCCN)NC(C)=O)C(C)C)C(C)C)C(C)C)C(=O)N[C@H](C(=O)N1CCC[C@H]1C(N)=O)[C@@H](C)O` [CaMBD2] (Ac-KSKKAVWHKLLSKQRRRAVVACFRMTP-NH2): the “N (sites)” value in [1] (setting [8]) was found to be 0.78 ± 0.09. In test [1] (setting [9]), the Kd was found to be 0.146 ± 0.0239 µM, the ΔG is -9.7 ± 0.1 kcal/mol and the ΔH is -11.4 ± 0.2 kcal/mol. Further, in [1] (setting [10]), the Kd is 17 µM, the “N (sites)” value came out at 0.51 ± 0.15, the ΔG is -6.8 ± 0.1 kcal/mol and the ΔH is -10.3 ± 3.0 kcal/mol. Further, the “difference” value in test [1] turned out to be 114 fold. Moreover, the “affinity sequence of CaM” value in the test on CaM was “CaMBD2 > CaMBD3 > CaMBD1”.
As for `CC(=O)N[C@@H](CCCNC(=N)N)C(=O)N[C@@H](C)C(=O)N[C@@H](CC(C)C)C(=O)N[C@@H](CCCNC(=N)N)C(=O)NCC(=O)N[C@@H](CC(C)C)C(=O)N[C@@H](CO)C(=O)N[C@@H](Cc1ccc(O)cc1)C(=O)N[C@@H](CCCNC(=N)N)C(=O)N[C@@H](CO)C(=O)N[C@@H](CC(C)C)C(=O)N[C@@H](CCCNC(=N)N)C(=O)N[C@@H](CCCNC(=N)N)C(=O)N[C@@H](CCCNC(=N)N)C(=O)N[C@H](C(=O)N[C@@H](CCCNC(=N)N)C(=O)N[C@@H](CCCNC(=N)N)C(=O)N[C@@H](CC(C)C)C(=O)N[C@@H](CCCNC(=N)N)C(=O)N[C@@H](CCCNC(=N)N)C(=O)N[C@@H](CC(C)C)C(=O)N[C@H](C(=O)N[C@@H](C)C(=O)N[C@@H](CCCNC(=N)N)C(N)=O)[C@@H](C)O)C(C)C` [CaMBD3] (Ac-RALRGLSYRSLRRRVRRLRRLTAR-NH2), the “S100A1 binding, in words” value in test [1] (ITC) is “binds with different affinities; also recorded: tightest S100A1 binding”. In addition, the “N (sites)” value in [1] (setting [8]) is recorded as 1.79 ± 0.08. For the same molecule, in [1] (setting [9]), the Kd was 0.0089 ± 0.011 µM, the ΔG is -11.9 ± 1.2 kcal/mol and the ΔH is -3.6 ± 0.7 kcal/mol. Further, in test [1] (setting [10]), the Kd was found to be 6.7 µM, the “N (sites)” value came out at 1.27 ± 0.07, the ΔG was -7.4 ± 0.2 kcal/mol and the ΔH was -6.1 ± 0.9 kcal/mol. Moreover, the “difference” value in [1] is on record as 755 fold. Further, the “affinity sequence of CaM” value with CaM was “CaMBD2 > CaMBD3 > CaMBD1”.
On to “rCaMBD1: peptide from rabbit RyR1, residues 3614‐3640 (as printed), Lau et al. 2014 (KSKKAVWHKLLSKQRRRAVVACFRMTP; UniProt P11716 3614-3640, looked up, fragment) [reference compound]”, for which the “CaM binding, in words” value in the test on CaM is on record as “CaM can bind”.
On to “rCaMBD2: peptide from rabbit RyR1, residues 1975‐1999 (as printed), Lau et al. 2014 (SRYALLMRAFTMSAAETARRTREFR; UniProt P11716 1975-1999, looked up, fragment) [reference compound]”, for which, in the test on CaM, the “CaM binding, in words” value is on record as “CaM can bind”.
With “rCaMBD3: peptide from rabbit RyR1, residues 4295‐4325, Lau et al. 2014 (RLAAAAARALRGLSYRSLRRRVRRLRRLTAR; UniProt P11716 4295-4325, looked up, fragment) [reference compound]”, in the test with CaM, the “CaM binding, in words” value is recorded as “CaM can bind”.

B1: S100A1, P23297 (protein)
chain: T1 sequence (P23297 1-94)
For the molecule B1, the Kd in test [2] was 0.0089 µM; in test [3], 6.7 µM; in [4] it was 0.146 µM; in [5] it was 21 µM; in test [6], 1.3 µM; in test [7] it was 17 µM.

B2: S100A1: 21 kDa dimeric molecule characterized by its EF‐hand Ca^2+‐binding motifs (protein, UniProt P23297 1-94, looked up)
Protein S100-A1: T1 sequence (P23297 1-94)
As for B2, the “S100A1 concentration required for RyR1 modulation, in words” value with RyR1 was “high unphysiological (micromolar) concentration”.
